Source: PubChem BioAssay AID1963442 (Molecular Pharmacology Branch, DTP, NCI, 2024)

Tested on: MPNST complex spheroid with HUVEC/MSC, growth, % test/control
Assay: Anticancer human tumor MPNST cell line growth inhibition [Asc];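 also: compounds left on spheroids for seven days before reading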
Settings: for IC50: curve of first compound; for viability, T/C: stronger effect = lower value
Summary of the method: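 Concentration series start at each agent's clinical Cmax, or at 10 microM when none is established, and drop in half-log steps; agents are applied alone or together to complex spheroids built with HUVEC and hMSC.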

[1] = second compound 0.1 µM, first compound 0.0316 µM
[2] = second compound 0.1 µM, first compound 0.1 µM
[3] = second compound 0.1 µM, first compound 0.316 µM
[4] = second compound 0.1 µM, first compound 1 µM
[5] = second compound 0.1 µM, first compound 3.16 µM
[6] = second compound 0.1 µM, first compound 10 µM
[7] = second compound 0.316 µM, first compound 0.0316 µM
[8] = second compound 0.316 µM, first compound 0.1 µM
[9] = second compound 0.316 µM, first compound 0.316 µM
[10] = second compound 0.316 µM, first compound 1 µM
[11] = second compound 0.316 µM, first compound 3.16 µM
[12] = second compound 0.316 µM, first compound 10 µM
[13] = second compound 1 µM, first compound 0.0316 µM
[14] = second compound 1 µM, first compound 0.1 µM
[15] = second compound 1 µM, first compound 0.316 µM
[16] = second compound 1 µM, first compound 1 µM
[17] = second compound 1 µM, first compound 3.16 µM
[18] = second compound 1 µM, first compound 10 µM
[19] = second compound 3.16 µM, first compound 0.0316 µM
[20] = second compound 3.16 µM, first compound 0.1 µM
[21] = second compound 3.16 µM, first compound 0.316 µM
[22] = second compound 3.16 µM, first compound 1 µM
[23] = second compound 3.16 µM, first compound 3.16 µM
[24] = second compound 3.16 µM, first compound 10 µM
[25] = second compound 10 µM, first compound 0.0316 µM
[26] = second compound 10 µM, first compound 0.1 µM
[27] = second compound 10 µM, first compound 0.316 µM
[28] = second compound 10 µM, first compound 1 µM
[29] = second compound 10 µM, first compound 3.16 µM
[30] = second compound 10 µM, first compound 10 µM

C=C(F)C(=O)N1CCN(c2nc(OCC3CCCN3C)nc3c2CCN(c2cccc4cccc(Cl)c24)C3)CC1CC#N (stereo not given) + Cc1c(S(C)(=O)=O)c(-c2cc(F)cc(N3CCN(c4ccc(NS(=O)(=O)c5ccc(NC(CCN6CCC(C(=O)OCCCP(=O)(O)O)CC6)CSc6ccccc6)c(S(=O)(=O)C(F)(F)F)c5)cc4)CC3)c2)c(-c2ccc(Cl)cc2)n1C(C)C
IC50 (second compound 0.1 µM): > 10 µM | IC50 (second compound 0.316 µM): 3.72 µM | IC50 (second compound 1 µM): 2.88 µM | IC50 (second compound 3.16 µM): 1.98 µM | IC50 (second compound 10 µM): 3.3 µM | viability, T/C [1]: 65.5% | viability, T/C [2]: 66.2% | viability, T/C [3]: 69.8% | viability, T/C [4]: 81.1% | viability, T/C [5]: 74.7% | viability, T/C [6]: 51.3% | viability, T/C [7]: 67.2% | viability, T/C [8]: 61.1% | viability, T/C [9]: 69.6% | viability, T/C [10]: 58% | viability, T/C [11]: 52.4% | viability, T/C [12]: 36.2% | viability, T/C [13]: 73.5% | viability, T/C [14]: 75.4% | viability, T/C [15]: 67.6% | viability, T/C [16]: 53.9% | viability, T/C [17]: 53.5% | viability, T/C [18]: 41.1% | viability, T/C [19]: 78.2% | viability, T/C [20]: 70% | viability, T/C [21]: 64.5% | viability, T/C [22]: 57.3% | viability, T/C [23]: 46.2% | viability, T/C [24]: 32.7% | viability, T/C [25]: 53.5% | viability, T/C [26]: 65.8% | viability, T/C [27]: 71.2% | viability, T/C [28]: 64.4% | viability, T/C [29]: 50.8% | viability, T/C [30]: 30.3%

C=CC(=O)N1CCN(c2nc(=O)n(-c3c(C)ccnc3C(C)C)c3nc(-c4c(O)cccc4F)c(F)cc23)C(C)C1 (stereo not given) + Cc1c(S(C)(=O)=O)c(-c2cc(F)cc(N3CCN(c4ccc(NS(=O)(=O)c5ccc(NC(CCN6CCC(C(=O)OCCCP(=O)(O)O)CC6)CSc6ccccc6)c(S(=O)(=O)C(F)(F)F)c5)cc4)CC3)c2)c(-c2ccc(Cl)cc2)n1C(C)C
IC50 (second compound 0.1 µM): > 10 µM | IC50 (second compound 0.316 µM): > 10 µM | IC50 (second compound 1 µM): > 10 µM | IC50 (second compound 3.16 µM): > 10 µM | IC50 (second compound 10 µM): > 10 µM | viability, T/C [1]: 71.9% | viability, T/C [2]: 74.7% | viability, T/C [3]: 84.2% | viability, T/C [4]: 96.2% | viability, T/C [5]: 93.4% | viability, T/C [6]: 105% | viability, T/C [7]: 79.4% | viability, T/C [8]: 93.8% | viability, T/C [9]: 76.7% | viability, T/C [10]: 88.9% | viability, T/C [11]: 85.7% | viability, T/C [12]: 108% | viability, T/C [13]: 90.8% | viability, T/C [14]: 85.1% | viability, T/C [15]: 89.8% | viability, T/C [16]: 89.9% | viability, T/C [17]: 101% | viability, T/C [18]: 118% | viability, T/C [19]: 66.5% | viability, T/C [20]: 88% | viability, T/C [21]: 84.6% | viability, T/C [22]: 99% | viability, T/C [23]: 100% | viability, T/C [24]: 99% | viability, T/C [25]: 83.5% | viability, T/C [26]: 91.2% | viability, T/C [27]: 83.8% | viability, T/C [28]: 97.1% | viability, T/C [29]: 115% | viability, T/C [30]: 115%

CCN1C(C(=O)NC23CCC(C(=O)O)(CC2)CC3)C(c2cccc(Cl)c2F)C2(C(=O)Nc3cc(Cl)ccc32)C12CCCCC2 (stereo not given) + Cc1c(S(C)(=O)=O)c(-c2cc(F)cc(N3CCN(c4ccc(NS(=O)(=O)c5ccc(NC(CCN6CCC(C(=O)OCCCP(=O)(O)O)CC6)CSc6ccccc6)c(S(=O)(=O)C(F)(F)F)c5)cc4)CC3)c2)c(-c2ccc(Cl)cc2)n1C(C)C
IC50 (second compound 0.1 µM): > 3 µM | IC50 (second compound 0.316 µM): > 3 µM | IC50 (second compound 1 µM): > 3 µM | IC50 (second compound 3.16 µM): > 3 µM | IC50 (second compound 10 µM): > 3 µM | viability, T/C (second compound 0.1 µM, first compound 0.00949 µM): 66.3% | viability, T/C (second compound 0.1 µM, first compound 0.03 µM): 92.1% | viability, T/C (second compound 0.1 µM, first compound 0.0949 µM): 78.6% | viability, T/C (second compound 0.1 µM, first compound 0.3 µM): 69.6% | viability, T/C (second compound 0.1 µM, first compound 0.949 µM): 82.5% | viability, T/C (second compound 0.1 µM, first compound 3 µM): 58.6% | viability, T/C (second compound 0.316 µM, first compound 0.00949 µM): 84% | viability, T/C (second compound 0.316 µM, first compound 0.03 µM): 76.4% | viability, T/C (second compound 0.316 µM, first compound 0.0949 µM): 75.2% | viability, T/C (second compound 0.316 µM, first compound 0.3 µM): 66.9% | viability, T/C (second compound 0.316 µM, first compound 0.949 µM): 58.5% | viability, T/C (second compound 0.316 µM, first compound 3 µM): 60.3% | viability, T/C (second compound 1 µM, first compound 0.00949 µM): 83.1% | viability, T/C (second compound 1 µM, first compound 0.03 µM): 77.6% | viability, T/C (second compound 1 µM, first compound 0.0949 µM): 78.9% | viability, T/C (second compound 1 µM, first compound 0.3 µM): 66.6% | viability, T/C (second compound 1 µM, first compound 0.949 µM): 58.8% | viability, T/C (second compound 1 µM, first compound 3 µM): 63% | viability, T/C (second compound 3.16 µM, first compound 0.00949 µM): 77.9% | viability, T/C (second compound 3.16 µM, first compound 0.03 µM): 69.7% | viability, T/C (second compound 3.16 µM, first compound 0.0949 µM): 92.9% | viability, T/C (second compound 3.16 µM, first compound 0.3 µM): 59.1% | viability, T/C (second compound 3.16 µM, first compound 0.949 µM): 61.6% | viability, T/C (second compound 3.16 µM, first compound 3 µM): 56.7% | viability, T/C (second compound 10 µM, first compound 0.00949 µM): 85.9% | viability, T/C (second compound 10 µM, first compound 0.03 µM): 82.3% | viability, T/C (second compound 10 µM, first compound 0.0949 µM): 75.4% | viability, T/C (second compound 10 µM, first compound 0.3 µM): 68.8% | viability, T/C (second compound 10 µM, first compound 0.949 µM): 56.5% | viability, T/C (second compound 10 µM, first compound 3 µM): 58.3%

CNC(C)C(=O)NC1CN(S(=O)(=O)c2cccc(S(=O)(=O)N3CCC4CCC(C(=O)NC(c5ccccc5)c5ccccc5)N4C(=O)C(NC(=O)C(C)NC)C3)c2)CCC2CCC(C(=O)NC(c3ccccc3)c3ccccc3)N2C1=O (stereo not given) + Cc1c(S(C)(=O)=O)c(-c2cc(F)cc(N3CCN(c4ccc(NS(=O)(=O)c5ccc(NC(CCN6CCC(C(=O)OCCCP(=O)(O)O)CC6)CSc6ccccc6)c(S(=O)(=O)C(F)(F)F)c5)cc4)CC3)c2)c(-c2ccc(Cl)cc2)n1C(C)C
IC50 (second compound 0.1 µM): > 1 µM | IC50 (second compound 0.316 µM): > 1 µM | IC50 (second compound 1 µM): > 1 µM | IC50 (second compound 3.16 µM): > 1 µM | IC50 (second compound 10 µM): > 1 µM | viability, T/C (second compound 0.1 µM, first compound 0.00316 µM): 121% | viability, T/C (second compound 0.1 µM, first compound 0.01 µM): 143% | viability, T/C [1]: 162% | viability, T/C [2]: 165% | viability, T/C [3]: 126% | viability, T/C [4]: 108% | viability, T/C (second compound 0.316 µM, first compound 0.00316 µM): 139% | viability, T/C (second compound 0.316 µM, first compound 0.01 µM): 150% | viability, T/C [7]: 127% | viability, T/C [8]: 149% | viability, T/C [9]: 121% | viability, T/C [10]: 135% | viability, T/C (second compound 1 µM, first compound 0.00316 µM): 145% | viability, T/C (second compound 1 µM, first compound 0.01 µM): 150% | viability, T/C [13]: 152% | viability, T/C [14]: 147% | viability, T/C [15]: 194% | viability, T/C [16]: 160% | viability, T/C (second compound 3.16 µM, first compound 0.00316 µM): 132% | viability, T/C (second compound 3.16 µM, first compound 0.01 µM): 185% | viability, T/C [19]: 171% | viability, T/C [20]: 141% | viability, T/C [21]: 151% | viability, T/C [22]: 159% | viability, T/C (second compound 10 µM, first compound 0.00316 µM): 143% | viability, T/C (second compound 10 µM, first compound 0.01 µM): 200% | viability, T/C [25]: 216% | viability, T/C [26]: 159% | viability, T/C [27]: 185% | viability, T/C [28]: 179%
